Test results reported in patent US9738591B2, “Antimicrobial compounds” (priority 2009, dated 2017).
Converted amounts (≈) assume the structure as drawn. “And” between values parts separate entries of the source, which are not always exact repeats. Equal entries are not always repeated. Where two headings read alike, the source gives them in different places.

Assays:
[1] = tested on: Clostridium perfringens ATCC 2734; assay type: cell-based; details: 10 mg/ml, 20 μl, BA - prereduced, anaerobe
[2] = tested on: S. typhimurium TA98, TA100 and TA1535; assay: Ames Test for mutagenic activity, no metabolic activation; details: for Number of colonies: duplicate plates
[3] = tested on: Klebsiella edwardsii NCTC 10896; assay: Disk diffusion; assay type: cell-based; details: 10 mg/ml, 20 μl
[4] = tested on: Stenotrophomonas maltophilia M2495; assay: Disk diffusion; assay type: cell-based; details: 10 mg/ml, 20 μl, strain M2495
[5] = tested on: Staphylococcus aureus NCTC 6571/ATCC 9144; assay: Disk diffusion; details: for zone of inhibition at 10000 µg/mL: Staphylococcus aureus
[6] = tested on: Staphylococcus xylosus ATCC 29971; assay: Disk diffusion; details: 10 mg/ml, 20 μl
[7] = tested on: Listeria monocytogenes NCTC 7973; assay: Disk diffusion; details: 10 mg/ml, 20 μl
sheep erythrocytes = assay: Haemolysis of sheep erythrocytes; assay type: cell-based; details: for Average (SD) % haemolysis (n = 2): 2% sheep erythrocytes, 37° C., 2 h
Description: As an indicator of toxicity to human cells, haemolysis experiments on sheep erythrocytes were undertaken with TSB007.
10 mg/ml stock solution of TSB007 was prepared in 100% DMSO. Master stock solutions of TSB007 (10 mg/ml) were made by dissolving 20 mg dehydrated compound in 2 ml 100% DMSO. They were stored in foil-covered glass bottles at −20° C. Master stocks stored in this way retained full antimicrobial activity for a minimum period of 6 weeks (results not shown).
Serial, 10-fold dilutions were performed in PBS to make solutions of 1000, 100, 10 and 1 mg/L of TSB007. In microcentrifuge tubes, 500 μl of each dilution was combined with 480 μl PBS and 20 μl washed sheep erythrocytes (100%) so that the final concentration of erythrocytes was 2% and the final concentrations of compound were 500, 50, 5 and 0.5 mg/L. Dilutions of DMSO without. TSB007 were prepared and tested as above to check for haemolysis due to DMSO. A 100% haemolysis control was prepared with 980 μl water and 20 μl erythrocyte suspension. A negative control was prepared with 980 μl PBS and 20 μl erythrocyte suspension. Dilutions and controls were prepared and tested in duplicate.
Tubes were incubated at 37° C. for 2 h on a rocker then centrifuged at 12 000 g for 5 mins. The OD540 of the supernatant was determined using 100 μl volumes transferred to a microtitre tray. % haemolysis was determined by blanking the OD against that of the negative control and presenting the resulting OD as a proportion of the OD of the positive control (blanked with water).

[8] = tested on: S. epidermidis ATCC 12228; assay: MIC and MBC by broth microdilution; assay type: cell-based; details: Staphylococcus epidermidis, ATCC12228, CA-MHB, two independent replicates
[9] = tested on: Moraxella catarrhalis ATCC 25238; assay: Disk diffusion; assay type: cell-based; details: 10 mg/ml, 20 μl, incubated in 5% CO2
[10] = tested on: Enterococcus faecium ATCC 19434; assay: Disk diffusion; assay type: cell-based; details: 10 mg/ml, 20 μl
[11] = tested on: Streptococcus pneumoniae ATCC 49619; assay: Disk diffusion; details: 10 mg/ml, 20 μl, Mueller Hinton + Blood & Incubated in 5% CO2
[12] = tested on: Clostridium difficile NCTC 43593; assay: Disk diffusion; assay type: cell-based; details: 10 mg/ml, 20 μl, BA - prereduced, anaerobe
Description: (§1) Plates were incubated at 35° C.

[13] = tested on: Shigella flexneri NCTC 8192; assay: Disk diffusion; assay type: cell-based; details: 10 mg/ml, 20 μl; repeat
Description: as §1

[14] = tested on: Streptococcus pyogenes NCTC 8191; assay: Disk diffusion; details: 10 mg/ml, 20 μl
[15] = tested on: Staphylococcus epidermidis ATCC 12228; assay: Disk diffusion; details: for zone of inhibition at 10000 µg/mL: Staphylococcus epidermidis
[16] = tested on: Vibrio cholerae (non-toxigenic) M3695; assay: Disk diffusion; assay type: cell-based; details: 10 mg/ml, 20 μl, (other strain?)

SMILES: O=C(O)c1ccc(/C=C/c2cc(/C=C/c3ccc(C(=O)O)cc3)cc(/C=C/c3ccc(C(=O)O)cc3)c2)cc1 [TSB007]
- Zone diameters, 24 h TSB007 ([1]; 24 h): 12 trim
- Zone diameters, 48 h TSB007 ([1]; 48 h): 12 trim
- Ames Test result ([2]; 100, 300 and 1000 μg/plate, TA98, TA100, TA1535, no metabolic activation): negative
- Number of colonies ([2]; TA98, 100 μg/plate, negative control 14, 12): 16 and 13
- Number of colonies ([2]; TA98, 300 μg/plate, negative control 14, 12): 11
- Number of colonies ([2]; TA98, 1000 μg/plate, negative control 14, 12): 3 and 2
- Number of colonies ([2]; TA100, 100 μg/plate, negative control 113, 96): 111 and 92
- Number of colonies ([2]; TA100, 300 μg/plate, negative control 113, 96): 110 and 105
- Number of colonies ([2]; TA100, 1000 μg/plate, negative control 113, 96): 88 and 89
- Number of colonies ([2]; TA1535, 100 μg/plate, negative control 28, 29): 17 and 29
- Number of colonies ([2]; TA1535, 300 μg/plate, negative control 28, 29): 16 and 24
- Number of colonies ([2]; TA1535, 1000 μg/plate, negative control 28, 29): 0
- Zone diameters, Repeat Results [3]: 9 trim
- Zone diameters, Repeat Results [4]: 9 trim
- Zone diameters, 24 h TSB007 ([5]; 10 mg/ml, 20 μl, 24 h): 20 trim
- Zone diameters, 48 h TSB007 ([5]; 10 mg/ml, 20 μl, 48 h): 9 trim
- Zone diameters, 48 h O2 ([5]; 10 mg/ml, 20 μl, 48 h, incubated aerobically): No zone
- Zone diameters, Repeat Results ([5]; 10 mg/ml, 20 μl, repeat): 21 trim
- zone of inhibition at 10000 µg/mL ([5]; ATCC9144|NCTC6571, 24 h, read-out: Zone diameters, 24 h AnO2): 18 mm
- zone of inhibition at 10000 µg/mL ([5]; ATCC9144|NCTC6571, 24 h, read-out: Zone diameters, 24 h O2): 14 mm
- zone of inhibition at 10000 µg/mL ([5]; ATCC9144|NCTC6571, 48 h, read-out: Zone diameters, 48 h AnO2): 18 mm
- Zone diameters, 24 h TSB007 ([6]; 24 h): 17 trim
- Zone diameters, Repeat Results ([6]; repeat): 18 trim
- Zone diameters, 24 h TSB007 ([7]; 24 h): 9 trim
- Zone diameters, 48 h TSB007 ([7]; 48 h): 9 trim
- Zone diameters, Repeat Results ([7]; repeat, value printed with '?'): 15? trim
- Average (SD) % haemolysis (n = 2) (sheep erythrocytes; 0.5 mg/L): −2.316 (0.695) %
- Average (SD) % haemolysis (n = 2) (sheep erythrocytes; 5 mg/L): 2.175 (0.099) %
- Average (SD) % haemolysis (n = 2) (sheep erythrocytes; 50 mg/L): 2.316 (0.099) %
- haemolytic activity (sheep erythrocytes; 0.5-500 mg/L): very low
- Average (SD) % haemolysis (n = 2) (sheep erythrocytes; 500 mg/L): 5.053 (0.595) %
- MIC ([8]; 35° C., 24 h): 2 to 4 µg/mL (≈ 3.87 to 7.74 µM)
- MBC [8]: > 32 µg/mL
- Zone diameters, 24 h TSB007 ([9]; 24 h): 25 trim
- Zone diameters, 48 h TSB007 ([9]; 48 h): 25 trim
- Zone diameters, 24 h TSB007 ([10]; 24 h): 11 trim
- Zone diameters, 48 h TSB007 ([10]; 48 h): 10 trim
- Zone diameters, 24 h TSB007 ([11]; 24 h): 16 trim
- Zone diameters, 48 h TSB007 ([11]; 48 h): 16 trim
- Zone diameters, 24 h TSB007 ([12]; 24 h): 10 trim
- Zone diameters, 48 h TSB007 ([12]; 48 h): 10 trim
- Zone diameters, Repeat Results [13]: 8.5 trim
- Zone diameters, 24 h TSB007 ([14]; 24 h, Mueller Hinton + Blood & Incubated in 5% CO2): 14 trim
- Zone diameters, 48 h TSB007 ([14]; 48 h, Mueller Hinton + Blood & Incubated in 5% CO2): 14 trim
- Zone diameters, Repeat Results ([14]; repeat): 17 trim
- Zone diameters, 24 h TSB007 ([15]; 10 mg/ml, 20 μl, 24 h): 22 trim
- Zone diameters, 48 h TSB007 ([15]; 10 mg/ml, 20 μl, 48 h): 22 trim
- Zone diameters, Repeat Results ([15]; 10 mg/ml, 20 μl, repeat): 20 trim
- zone of inhibition at 10000 µg/mL ([15]; ATCC12228, 24 h, read-out: Zone diameters, 24 h AnO2): 22 mm
- zone of inhibition at 10000 µg/mL ([15]; ATCC12228, 24 h, read-out: Zone diameters, 24 h O2): 18 mm
- zone of inhibition at 10000 µg/mL ([15]; ATCC12228, 48 h, read-out: Zone diameters, 48 h AnO2): 22 mm
- zone of inhibition at 10000 µg/mL ([15]; ATCC12228, 48 h, read-out: Zone diameters, 48 h O2): 18 mm
- Zone diameters, Repeat Results [16]: 7 trim
